We go through 9 compounds from publication PMC9694798, “Resveratrol Analogues as Dual Inhibitors of Monoamine Oxidase B and Carbonic Anhydrase VII: A New Multi-Target Combination for Neurodegenerative Diseases?” (Molecules, 2022).

Several values for one entry are separate records, joined by “and”; a condition that tells them apart may be missing. Equal values may be shown once.

Test [1] deals with MAO-B. Set-up: method as in PMID 7699569. To be noted: cited from earlier work.
In test [2] the target is T1, Recombinant human MAO-A (Homo sapiens, UniProt P21397).
T1 construct: purchased Sigma-Aldrich
T1 sequence (P21397 1-527): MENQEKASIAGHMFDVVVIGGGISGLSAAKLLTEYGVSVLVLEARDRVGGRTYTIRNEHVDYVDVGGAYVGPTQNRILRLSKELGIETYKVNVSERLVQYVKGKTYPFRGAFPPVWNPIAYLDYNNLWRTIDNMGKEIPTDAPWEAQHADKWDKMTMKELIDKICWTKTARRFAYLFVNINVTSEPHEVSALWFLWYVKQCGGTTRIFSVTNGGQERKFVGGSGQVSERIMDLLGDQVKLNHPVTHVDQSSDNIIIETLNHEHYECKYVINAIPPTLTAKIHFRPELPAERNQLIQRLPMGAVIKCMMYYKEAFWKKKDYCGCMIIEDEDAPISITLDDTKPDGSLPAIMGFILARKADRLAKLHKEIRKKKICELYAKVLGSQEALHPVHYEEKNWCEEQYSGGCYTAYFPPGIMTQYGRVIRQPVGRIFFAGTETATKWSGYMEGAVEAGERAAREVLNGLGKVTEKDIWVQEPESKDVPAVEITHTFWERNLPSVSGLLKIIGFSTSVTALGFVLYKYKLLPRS
The test is described as follows: In vitro MAO-A inhibition assay (kynuramine, fluorescence). It is filed as biochemical. To be noted: kynuramine substrate, mean ± S.D. of three independent experiments.

The target of test [3] is T2, Recombinant human MAO-B (Homo sapiens, UniProt P27338).
T2 construct: purchased Sigma-Aldrich
T2 sequence (P27338 1-520): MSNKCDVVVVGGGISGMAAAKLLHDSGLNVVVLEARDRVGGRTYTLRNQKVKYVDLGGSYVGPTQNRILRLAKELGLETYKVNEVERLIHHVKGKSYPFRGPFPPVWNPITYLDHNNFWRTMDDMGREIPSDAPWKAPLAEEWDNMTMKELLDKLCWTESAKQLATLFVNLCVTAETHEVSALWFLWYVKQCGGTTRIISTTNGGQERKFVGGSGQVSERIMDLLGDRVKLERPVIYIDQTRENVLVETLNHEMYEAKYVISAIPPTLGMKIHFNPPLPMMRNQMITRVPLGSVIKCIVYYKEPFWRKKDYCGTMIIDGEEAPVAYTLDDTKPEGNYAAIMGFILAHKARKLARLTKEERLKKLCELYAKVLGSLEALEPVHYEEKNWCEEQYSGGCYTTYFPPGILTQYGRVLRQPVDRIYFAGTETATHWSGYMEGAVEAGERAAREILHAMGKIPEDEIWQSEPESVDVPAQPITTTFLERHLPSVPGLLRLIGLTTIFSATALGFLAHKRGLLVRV
The test is described as follows: In vitro MAO-B inhibition assay (kynuramine, fluorescence). It is filed as biochemical. To be noted: kynuramine substrate, mean ± S.D. of three independent experiments.

The target of test [4] is T3, hCA VA (Homo sapiens, UniProt P35218).
T3 construct: His-tag (N); made in house; host or cells: Escherichia coli BL21 (DE3)
The test is described as follows: CA inhibition, stopped-flow CO2 hydration assay. It is filed as biochemical. To be noted: stopped-flow technique; mean of three experiments, errors ±5–10%.

Test [5] concerns the target T4, hCA XII (Homo sapiens, UniProt O43570).
T4 construct: His-tag (N); made in house; host or cells: Escherichia coli BL21 (DE3)
The test is described as follows: CA inhibition, stopped-flow CO2 hydration assay. It is filed as biochemical. To be noted: stopped-flow technique; mean of three experiments, errors ±5–10%.

Test [6] addresses hCA VII (Homo sapiens, UniProt P43166). The test is described as follows: CA inhibition, stopped-flow CO2 hydration assay.
The target of test [7] is T5, hCA IX (Homo sapiens, UniProt Q16790).
T5 construct: His-tag (N); made in house; host or cells: Escherichia coli BL21 (DE3)
The test is described as follows: CA inhibition, stopped-flow CO2 hydration assay. To be noted: stopped-flow technique; mean of three experiments, errors ±5–10%. It is filed as biochemical.

In test [8] the target is T6, hCA I (Homo sapiens, UniProt P00915).
T6 construct: His-tag (N); made in house; host or cells: Escherichia coli BL21 (DE3)
The test is described as follows: CA inhibition, stopped-flow CO2 hydration assay. It is filed as biochemical. To be noted: for Ki: stopped-flow technique, mean of three experiments, errors ±5–10%.

In test [9] the target is T7, hCA II (Homo sapiens, UniProt P00918).
T7 construct: His-tag (N); made in house; host or cells: Escherichia coli BL21 (DE3)
The test is described as follows: CA inhibition, stopped-flow CO2 hydration assay. To be noted: for Ki: stopped-flow technique, mean of three experiments, errors ±5–10%. It is filed as biochemical.

Test [10] concerns the target T8, hCA VB (Homo sapiens, UniProt Q9Y2D0).
T8 construct: His-tag (N); made in house; host or cells: Escherichia coli BL21 (DE3)
The test is described as follows: CA inhibition, stopped-flow CO2 hydration assay. It is filed as biochemical. To be noted: stopped-flow technique; mean of three experiments, errors ±5–10%.

The test system of test [11] is MAO. Set-up: method as in PMID 30809547. To be noted: cited from earlier work.

Take `C[C@H](NCc1ccc(OCc2cccc(F)c2)cc1)C(N)=O` [safinamide]: the half-inhibitory concentration (IC50) – broadly, the midpoint of a concentration-inhibition curve – in test [1] was […].

T4 sequence (O43570 25-354): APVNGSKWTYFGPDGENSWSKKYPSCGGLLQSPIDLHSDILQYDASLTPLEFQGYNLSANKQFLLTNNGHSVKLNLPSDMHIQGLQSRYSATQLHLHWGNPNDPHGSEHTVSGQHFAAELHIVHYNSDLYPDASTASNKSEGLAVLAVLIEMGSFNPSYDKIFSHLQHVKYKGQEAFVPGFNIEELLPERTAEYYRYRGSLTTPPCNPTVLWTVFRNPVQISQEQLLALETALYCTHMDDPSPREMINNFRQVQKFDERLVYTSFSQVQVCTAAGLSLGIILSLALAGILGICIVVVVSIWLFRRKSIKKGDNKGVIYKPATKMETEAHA
hCA VII, sequence (P43166 whole entry): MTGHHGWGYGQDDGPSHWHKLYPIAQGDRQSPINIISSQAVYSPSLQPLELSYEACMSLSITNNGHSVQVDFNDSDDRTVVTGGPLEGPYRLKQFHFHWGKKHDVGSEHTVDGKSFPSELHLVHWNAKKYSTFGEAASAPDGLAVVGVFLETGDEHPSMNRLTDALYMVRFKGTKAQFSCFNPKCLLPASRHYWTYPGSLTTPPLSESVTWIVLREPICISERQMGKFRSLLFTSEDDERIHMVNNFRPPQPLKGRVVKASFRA
T8 sequence (Q9Y2D0 34-317): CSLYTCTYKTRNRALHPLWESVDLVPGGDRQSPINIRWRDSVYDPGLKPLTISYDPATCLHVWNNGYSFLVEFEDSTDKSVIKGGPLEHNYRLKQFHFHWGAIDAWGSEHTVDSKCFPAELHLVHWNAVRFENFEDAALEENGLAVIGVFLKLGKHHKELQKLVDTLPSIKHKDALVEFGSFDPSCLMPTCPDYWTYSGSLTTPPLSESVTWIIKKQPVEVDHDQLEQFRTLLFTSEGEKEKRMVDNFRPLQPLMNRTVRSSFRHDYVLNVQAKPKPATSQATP
T6 sequence (P00915 whole entry): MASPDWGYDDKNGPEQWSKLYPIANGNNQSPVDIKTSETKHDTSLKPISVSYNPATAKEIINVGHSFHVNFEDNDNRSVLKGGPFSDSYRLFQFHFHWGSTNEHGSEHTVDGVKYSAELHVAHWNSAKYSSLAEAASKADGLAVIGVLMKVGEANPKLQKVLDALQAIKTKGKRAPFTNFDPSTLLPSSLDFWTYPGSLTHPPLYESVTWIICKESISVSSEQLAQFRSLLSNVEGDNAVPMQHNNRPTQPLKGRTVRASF
T3 sequence (P35218 39-305): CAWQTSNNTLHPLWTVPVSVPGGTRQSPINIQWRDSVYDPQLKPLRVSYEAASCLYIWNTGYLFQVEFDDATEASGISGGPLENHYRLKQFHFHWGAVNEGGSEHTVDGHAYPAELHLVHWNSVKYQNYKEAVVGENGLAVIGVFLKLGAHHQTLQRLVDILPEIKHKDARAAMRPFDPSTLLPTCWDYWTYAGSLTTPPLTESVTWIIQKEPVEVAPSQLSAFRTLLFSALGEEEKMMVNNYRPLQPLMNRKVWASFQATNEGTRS

Consider `Oc1ccc(/C=C/c2ccc(C(F)(F)F)cc2)cc1` [Compound 5], for which the IC50 in test [2] came out at 9770 ± 553 nM; in test [3], 14200 ± 1820 nM. Besides, the inhibition constant (Ki) (commonly a measure of affinity in units of concentration, obtained from inhibition or displacement) in test [4] was 83 µM; in [5], > 100 µM; in test [6], > 100 µM; in test [7] it was 94.6 µM; in test [8] it was > 100 µM; in [9] it was 43.4 µM. For the same compound, in [10], affinity was put at a Ki of 8.7 µM.

On to `Oc1ccc(/C=C/c2ccccc2)cc1Cl` [Compound 1], for which the IC50 stood at 3060 ± 100 nM in [2] and 156 ± 9 nM in [3]. In addition, the inhibition constant (Ki) in [4] was 9 µM; in [5], 2.7 µM; in [6] it was > 100 µM; in [7] it was 23.6 µM; in test [8] it was 89.5 µM; in test [9] it was 35.8 µM. Further, the affinity in test [10] corresponds to a Ki of 84.5 µM.

On to `N#Cc1ccc(/C=C/c2ccc(O)cc2)cc1` [Compound 6], for which the 50% inhibitory concentration (IC50) in test [2] worked out at 2010 ± 33 nM; in test [3], 103 ± 3 nM. In addition, the inhibitory constant (Ki) in [4] is > 100 µM; in [5] it was > 100 µM; in [6] it was 7.4 µM; in [7] it was > 100 µM; in [8], > 100 µM; in [9], 75.3 µM. In [10], this compound displayed an inhibitory constant (Ki) of 9.5 µM.

Regarding `Oc1ccc(/C=C/c2ccc(Cl)cc2Cl)cc1` [Compound 3], the IC50 in [2] is 1790 ± 95 nM; in test [3] it was 1520 ± 67 nM. The Ki was 86 µM in test [4]; > 100 µM in [5]; 7.5 µM in [6]; > 100 µM in test [7]; > 100 µM in test [8]; > 100 µM in test [9]. Moreover, the inhibition constant (Ki) in [10] was > 100 µM.

For the compound `Oc1ccc(/C=C/c2ccc(C(F)(F)F)cc2)cc1Cl` [Compound 4], the 50% inhibitory concentration (IC50) was 430 nM and 433 nM in [2]; 11 ± 6.5 nM in test [3]. Further, the Ki in [4] is 70.9 µM; in test [5], 6.9 µM; in test [6], 0.7 µM; in [7], 17.4 µM; in test [8], 86.8 µM; in test [9], 15.6 µM. This compound also returned an inhibition constant Ki in test [10] of 36.2 µM. In addition, the “inhibitory activities against hCA I, VA, and VB lower than against hCA VII” value in test [8] (hCA I, VA, VB vs hCA VII) was “up to 120 fold”. The “inhibition potency against hCA II weaker than against hCA VII” value in [9] (hCA II vs hCA VII) was “about 22 fold”.

Take `COc1ccc(/C=C/c2ccc(O)cc2)cc1` [Compound 7]: the IC50 was found to be 2710 ± 16 nM in [2] and 185 ± 9 nM in test [3]. Further, the Ki in test [4] was > 100 µM; in test [5], > 100 µM; in [6] it was 9.4 µM; in test [7], 81.8 µM; in [8] it was > 100 µM; in test [9] it was > 100 µM. This compound registered a Ki in test [10] of 9.7 µM.

For `Oc1ccc(C=Cc2cc(O)cc(O)c2)cc1` [RSV, 3,4′,5-trihydroxystilbene, reference compound], in [11], the “mechanism of MAO inhibition” value is on record as “competitive”. For the same compound, the concentration for half-maximal inhibition (IC50) in test [3] was > 100000 nM. In addition, the inhibition constant Ki amounted to 4.7 µM in test [4]; 0.9 µM in test [5]; 4.3 µM in test [6]; 0.8 µM in [7]; 2.2 µM in test [8]; 2.8 µM in test [9]. This compound displayed a Ki in test [10] of 4.6 µM.

Turning to `Oc1ccc(/C=C/c2ccc(Cl)cc2Cl)cc1Cl` [Compound 2], the figures for the IC50 in [2] and in test [3] were 2020 ± 175 nM and 1440 ± 35 nM, respectively. The inhibition constant Ki was 37.2 µM in test [4]; 4.5 µM in test [5]; 4.2 µM in test [6]; 81.1 µM in test [7]; > 100 µM in test [8]; > 100 µM in test [9]. Further, the inhibition constant (Ki) in test [10] turned out to be 32.2 µM.
